Source: PMC5762309 (Oncotarget, 2017)
pEC50, pKd: −log10 of the molar value. Where two headings read alike, the source gives them in different places.

Experiments:
ULK1 = molecular target: T1, ULK1 (Homo sapiens, UniProt O75385); test: KINOMEScan; assay type: binding; parameters: dose or concentration left out as unconfirmed
T1 construct: purchased DiscoverX KINOMEscan

CSK = molecular target: T2, CSK (Homo sapiens, UniProt P41240); test: KINOMEScan; assay type: binding; parameters: dose or concentration left out as unconfirmed
T2 construct: purchased DiscoverX KINOMEscan

CDK11 = molecular target: T3, CDK11 (Homo sapiens, UniProt Q9BWU1); test: KINOMEScan; assay type: binding; parameters: dose or concentration left out as unconfirmed
T3 construct: purchased DiscoverX KINOMEscan

KIT D816V = KIT D816V (Homo sapiens, UniProt P10721, D816V); test: KIT auto-phosphorylation in transformed BaF3 cells; settings: 2h
KIT T670I = KIT T670I (Homo sapiens, UniProt P10721, T670I); test: KIT auto-phosphorylation in transformed BaF3 cells; settings: 2h
ULK3 = molecular target: T4, ULK3 (Homo sapiens, UniProt Q6PHR2); test: KINOMEScan; assay type: binding; parameters: dose or concentration left out as unconfirmed
T4 construct: purchased DiscoverX KINOMEscan

KIT V559D = KIT V559D (Homo sapiens, UniProt P10721, V559D); test: Kd determination by MST; assay type: binding; parameters: Kit V559D encoding residues 545-976 with His tag; His tag; made in house; host or cells: SF9 insect cells (baculovirus); settings: purified protein
EGFR(G719C) = molecular target: T5, EGFR(G719C) (Homo sapiens, UniProt P00533, G719C); test: KINOMEScan; assay type: binding; parameters: dose or concentration left out as unconfirmed
T5 construct: purchased DiscoverX KINOMEscan

MST1 = molecular target: T6, MST1 (Homo sapiens, UniProt Q13043); test: KINOMEScan; assay type: binding; parameters: dose or concentration left out as unconfirmed
T6 construct: purchased DiscoverX KINOMEscan

ACVR2B = molecular target: T7, ACVR2B (Homo sapiens, UniProt Q13705); test: KINOMEScan; assay type: binding; parameters: dose or concentration left out as unconfirmed
T7 construct: purchased DiscoverX KINOMEscan

KIT V654A = KIT V654A (Homo sapiens, UniProt P10721, V654A); test: KIT auto-phosphorylation in transformed BaF3 cells; settings: 2h
EGFR = molecular target: T8, EGFR (Homo sapiens, UniProt P00533); test: KINOMEScan; assay type: binding; parameters: dose or concentration left out as unconfirmed
T8 construct: purchased DiscoverX KINOMEscan

JNK3 = molecular target: T9, JNK3 (Homo sapiens, UniProt P53779); test: KINOMEScan; assay type: binding; parameters: dose or concentration left out as unconfirmed
T9 construct: purchased DiscoverX KINOMEscan

BTK = molecular target: T10, BTK (Homo sapiens, UniProt Q06187); test: KINOMEScan; assay type: binding; parameters: dose or concentration left out as unconfirmed
T10 construct: purchased DiscoverX KINOMEscan

EGFR(S752-I759del) = molecular target: T11, EGFR(S752-I759del) (Homo sapiens, UniProt P00533, DEL752-759); test: KINOMEScan; assay type: binding; parameters: dose or concentration left out as unconfirmed
T11 construct: purchased DiscoverX KINOMEscan

[1] = molecular target: T12, EGFR(L747-E749del, A750P) (Homo sapiens, UniProt P00533, A750P/DEL747-749); test: KINOMEScan; assay type: binding; parameters: dose or concentration left out as unconfirmed
T12 construct: purchased DiscoverX KINOMEscan

[2] = molecular target: T13, JAK1(JH1domain-catalytic) (Homo sapiens, UniProt P23458); test: KINOMEScan; assay type: binding; parameters: dose or concentration left out as unconfirmed
T13 construct: JAK1(JH1domain-catalytic); purchased DiscoverX KINOMEscan

KIT N822K = KIT N822K (Homo sapiens, UniProt P10721, N822K); test: KIT auto-phosphorylation in transformed BaF3 cells
[3] = tested on: AKT, S6, ERK, p70S6K and STAT3 phosphorylation; test: Signaling pathway study in BaF3-TEL-KIT-V559D cells; assay type: cell-based; settings: KIT-V559D transformed stable BaF3 cells, Western blot
QSK = molecular target: T14, QSK (Homo sapiens, UniProt Q9Y2K2); test: KINOMEScan; assay type: binding; parameters: dose or concentration left out as unconfirmed
T14 construct: purchased DiscoverX KINOMEscan

PKMYT1 = molecular target: T15, PKMYT1 (Homo sapiens, UniProt Q99640); test: KINOMEScan; assay type: binding; parameters: dose or concentration left out as unconfirmed
T15 construct: purchased DiscoverX KINOMEscan

[4] = EC50 pY703 auto-phosphorylation
[5] = EC50 pY719 auto-phosphorylation
[6] = EC50 pY823 auto-phosphorylation

Chain of KIT T670I (P10721 26-976 T670I): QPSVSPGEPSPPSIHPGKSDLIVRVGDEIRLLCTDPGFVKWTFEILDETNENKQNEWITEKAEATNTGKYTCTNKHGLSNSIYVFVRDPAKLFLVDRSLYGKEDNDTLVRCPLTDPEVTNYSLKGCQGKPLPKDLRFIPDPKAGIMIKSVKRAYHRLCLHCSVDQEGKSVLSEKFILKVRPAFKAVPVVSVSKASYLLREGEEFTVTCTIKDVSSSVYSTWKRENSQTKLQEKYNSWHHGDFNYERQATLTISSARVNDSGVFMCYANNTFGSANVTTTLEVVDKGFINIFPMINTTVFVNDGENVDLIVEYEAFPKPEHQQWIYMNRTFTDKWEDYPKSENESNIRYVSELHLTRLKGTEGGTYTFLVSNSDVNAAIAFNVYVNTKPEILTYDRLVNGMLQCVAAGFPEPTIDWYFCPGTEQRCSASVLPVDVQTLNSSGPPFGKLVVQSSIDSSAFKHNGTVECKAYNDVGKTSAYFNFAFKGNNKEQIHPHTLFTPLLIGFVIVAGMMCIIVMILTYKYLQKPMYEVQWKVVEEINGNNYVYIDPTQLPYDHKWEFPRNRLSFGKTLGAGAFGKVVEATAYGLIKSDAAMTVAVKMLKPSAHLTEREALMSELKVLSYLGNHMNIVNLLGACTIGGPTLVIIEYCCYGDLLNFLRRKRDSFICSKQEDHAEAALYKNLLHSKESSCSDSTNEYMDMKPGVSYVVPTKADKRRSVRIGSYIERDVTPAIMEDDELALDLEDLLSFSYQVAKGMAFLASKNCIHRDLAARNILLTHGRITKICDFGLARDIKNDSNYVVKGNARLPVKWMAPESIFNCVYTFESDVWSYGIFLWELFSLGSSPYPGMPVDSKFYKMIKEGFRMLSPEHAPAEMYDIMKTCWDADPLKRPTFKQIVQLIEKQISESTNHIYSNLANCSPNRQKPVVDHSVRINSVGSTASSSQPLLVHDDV
Chain of KIT V654A (P10721 546-976 V654A): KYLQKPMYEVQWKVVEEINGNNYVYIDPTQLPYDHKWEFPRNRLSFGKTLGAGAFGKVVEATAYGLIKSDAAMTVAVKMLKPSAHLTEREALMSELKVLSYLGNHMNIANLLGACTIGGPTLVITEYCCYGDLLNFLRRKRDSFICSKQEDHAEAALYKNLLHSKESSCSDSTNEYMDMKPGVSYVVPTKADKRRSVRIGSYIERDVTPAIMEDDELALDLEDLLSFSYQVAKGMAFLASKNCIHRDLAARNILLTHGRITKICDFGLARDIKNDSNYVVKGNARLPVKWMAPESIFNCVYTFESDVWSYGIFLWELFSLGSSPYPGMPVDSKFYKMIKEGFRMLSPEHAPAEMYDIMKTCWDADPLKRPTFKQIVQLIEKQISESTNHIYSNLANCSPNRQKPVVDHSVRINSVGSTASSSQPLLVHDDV
Chain of KIT D816V (P10721 26-976 D816V): as the sequence (P10721 26-976 T670I) above, with I645T, D791V counted along it
Chain of KIT N822K (P10721 26-976 N822K): as the sequence (P10721 26-976 T670I) above, with I645T, N797K counted along it
T13 sequence (P23458 875-1154 limits assumed): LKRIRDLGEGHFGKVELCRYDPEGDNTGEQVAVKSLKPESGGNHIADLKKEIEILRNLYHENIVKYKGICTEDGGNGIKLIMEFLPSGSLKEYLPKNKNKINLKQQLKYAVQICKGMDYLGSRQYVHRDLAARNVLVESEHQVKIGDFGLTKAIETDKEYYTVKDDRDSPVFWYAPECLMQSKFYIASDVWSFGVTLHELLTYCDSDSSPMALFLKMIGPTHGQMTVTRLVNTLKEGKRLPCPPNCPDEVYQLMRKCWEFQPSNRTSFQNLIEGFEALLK
Chain of KIT V559D (P10721 545-976 V559D): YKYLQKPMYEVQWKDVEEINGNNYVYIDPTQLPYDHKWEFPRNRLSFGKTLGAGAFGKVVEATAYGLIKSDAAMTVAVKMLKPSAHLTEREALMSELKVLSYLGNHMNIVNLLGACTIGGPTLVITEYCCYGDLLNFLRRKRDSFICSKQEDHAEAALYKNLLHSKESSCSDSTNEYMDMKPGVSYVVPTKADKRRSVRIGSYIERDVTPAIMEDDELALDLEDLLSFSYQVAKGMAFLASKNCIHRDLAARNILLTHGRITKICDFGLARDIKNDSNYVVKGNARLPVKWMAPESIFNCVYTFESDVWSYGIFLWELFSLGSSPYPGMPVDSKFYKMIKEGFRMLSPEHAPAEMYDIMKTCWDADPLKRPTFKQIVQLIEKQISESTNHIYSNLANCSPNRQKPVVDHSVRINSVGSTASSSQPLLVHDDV
T7 sequence (Q13705 19-512): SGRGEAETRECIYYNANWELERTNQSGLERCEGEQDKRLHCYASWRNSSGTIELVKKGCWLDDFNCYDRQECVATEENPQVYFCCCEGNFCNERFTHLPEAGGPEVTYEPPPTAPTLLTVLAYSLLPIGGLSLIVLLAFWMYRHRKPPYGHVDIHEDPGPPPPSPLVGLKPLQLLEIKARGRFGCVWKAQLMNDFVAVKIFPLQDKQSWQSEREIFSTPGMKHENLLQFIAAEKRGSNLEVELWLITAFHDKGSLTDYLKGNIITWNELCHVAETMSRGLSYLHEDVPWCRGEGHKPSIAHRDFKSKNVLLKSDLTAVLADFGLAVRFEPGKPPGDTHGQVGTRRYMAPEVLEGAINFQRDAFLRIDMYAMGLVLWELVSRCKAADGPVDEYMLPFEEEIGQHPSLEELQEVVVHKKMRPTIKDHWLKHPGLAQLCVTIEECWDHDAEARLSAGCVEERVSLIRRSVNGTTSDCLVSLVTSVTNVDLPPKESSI
T1 sequence (O75385 whole entry): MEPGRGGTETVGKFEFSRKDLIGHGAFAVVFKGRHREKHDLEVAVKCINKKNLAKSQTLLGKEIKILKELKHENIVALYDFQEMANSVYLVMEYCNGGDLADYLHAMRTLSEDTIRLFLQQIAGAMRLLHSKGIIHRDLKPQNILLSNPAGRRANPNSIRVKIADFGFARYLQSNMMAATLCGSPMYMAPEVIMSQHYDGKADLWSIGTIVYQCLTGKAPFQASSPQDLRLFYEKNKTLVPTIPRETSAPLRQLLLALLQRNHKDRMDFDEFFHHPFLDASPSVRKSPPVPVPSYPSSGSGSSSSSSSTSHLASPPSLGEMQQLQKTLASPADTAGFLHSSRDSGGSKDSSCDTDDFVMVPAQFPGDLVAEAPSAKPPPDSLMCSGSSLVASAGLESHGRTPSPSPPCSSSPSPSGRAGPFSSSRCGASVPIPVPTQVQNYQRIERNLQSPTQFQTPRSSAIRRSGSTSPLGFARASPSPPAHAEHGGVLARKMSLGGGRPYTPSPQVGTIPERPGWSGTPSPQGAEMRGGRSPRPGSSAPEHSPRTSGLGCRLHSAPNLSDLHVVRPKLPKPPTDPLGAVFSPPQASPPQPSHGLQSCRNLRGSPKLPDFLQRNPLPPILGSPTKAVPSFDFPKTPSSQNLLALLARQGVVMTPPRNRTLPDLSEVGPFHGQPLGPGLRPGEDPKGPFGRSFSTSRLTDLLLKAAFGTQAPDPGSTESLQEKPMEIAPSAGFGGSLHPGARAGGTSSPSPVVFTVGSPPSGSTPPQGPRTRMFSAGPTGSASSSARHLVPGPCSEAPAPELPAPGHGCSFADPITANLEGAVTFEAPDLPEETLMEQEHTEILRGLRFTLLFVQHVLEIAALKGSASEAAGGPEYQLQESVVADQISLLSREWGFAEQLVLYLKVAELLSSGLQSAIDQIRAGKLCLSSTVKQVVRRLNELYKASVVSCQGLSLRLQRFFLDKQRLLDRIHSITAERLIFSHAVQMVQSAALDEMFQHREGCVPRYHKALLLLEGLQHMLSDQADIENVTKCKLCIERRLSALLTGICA
T8 sequence (P00533 25-1210): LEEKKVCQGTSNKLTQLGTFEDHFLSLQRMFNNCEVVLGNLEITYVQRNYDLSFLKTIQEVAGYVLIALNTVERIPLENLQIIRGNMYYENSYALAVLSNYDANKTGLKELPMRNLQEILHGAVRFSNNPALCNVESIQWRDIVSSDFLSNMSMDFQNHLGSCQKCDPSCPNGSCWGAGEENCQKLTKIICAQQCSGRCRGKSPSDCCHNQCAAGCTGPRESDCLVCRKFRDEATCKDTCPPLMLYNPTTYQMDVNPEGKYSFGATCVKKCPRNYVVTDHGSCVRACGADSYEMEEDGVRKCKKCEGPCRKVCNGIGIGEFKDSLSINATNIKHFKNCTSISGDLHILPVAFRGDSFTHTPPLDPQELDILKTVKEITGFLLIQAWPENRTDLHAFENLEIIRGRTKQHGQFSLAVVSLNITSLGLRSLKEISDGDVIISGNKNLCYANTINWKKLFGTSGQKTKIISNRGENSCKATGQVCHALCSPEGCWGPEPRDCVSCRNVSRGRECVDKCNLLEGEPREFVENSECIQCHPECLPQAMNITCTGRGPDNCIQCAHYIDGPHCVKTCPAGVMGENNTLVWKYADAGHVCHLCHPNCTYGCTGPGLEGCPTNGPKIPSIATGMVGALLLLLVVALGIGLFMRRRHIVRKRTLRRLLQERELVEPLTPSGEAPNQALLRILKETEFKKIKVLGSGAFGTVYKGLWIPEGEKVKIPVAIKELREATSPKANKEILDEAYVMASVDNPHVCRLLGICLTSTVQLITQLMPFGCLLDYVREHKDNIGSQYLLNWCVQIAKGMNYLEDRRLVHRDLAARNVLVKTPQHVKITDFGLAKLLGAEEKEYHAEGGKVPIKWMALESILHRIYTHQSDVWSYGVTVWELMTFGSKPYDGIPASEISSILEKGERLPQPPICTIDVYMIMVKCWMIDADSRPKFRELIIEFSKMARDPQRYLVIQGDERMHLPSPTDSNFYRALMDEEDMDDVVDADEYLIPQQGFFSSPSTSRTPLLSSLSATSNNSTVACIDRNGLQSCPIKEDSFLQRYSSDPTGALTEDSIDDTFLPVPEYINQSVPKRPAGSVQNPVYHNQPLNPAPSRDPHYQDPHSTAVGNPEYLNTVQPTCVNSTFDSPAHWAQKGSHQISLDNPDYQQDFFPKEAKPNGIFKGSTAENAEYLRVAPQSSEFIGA

Compound: COc1cc(C(=O)NCC(=O)Nc2ccc3c(/C=C/c4ccccn4)n[nH]c3c2)cc(OC)c1OC [CHMFL-KIT-031]
- KINOMEScan profiling value (ULK1): 92
- KINOMEScan profiling value (CSK): 87
- KINOMEScan profiling value (CDK11): 59
- pEC50 (KIT D816V; [4]): < 5.00
- pEC50 (KIT D816V; [5]): < 5.00
- pEC50 (KIT D816V; [6]): 5.34
- pEC50 (KIT T670I; [4]): < 5.00
- pEC50 (KIT T670I; [5]): < 5.00
- pEC50 (KIT T670I; [6]): 5.96
- KINOMEScan profiling value (ULK3): 89
- pKd (KIT V559D): 6.58
- KINOMEScan profiling value (EGFR(G719C)): 100
- KINOMEScan profiling value (MST1): 89
- KINOMEScan profiling value (ACVR2B): 100
- pEC50 (KIT V654A; [4]): 6.29
- pEC50 (KIT V654A; [5]): 5.66
- pEC50 (KIT V654A; [6]): 5.34
- KINOMEScan profiling value (EGFR): 100
- KINOMEScan profiling value (JNK3): 99
- KINOMEScan profiling value (BTK): 100
- KINOMEScan profiling value (EGFR(S752-I759del)): 92
- KINOMEScan profiling value [1]: 100
- KINOMEScan profiling value [2]: 87
- pEC50 (KIT N822K): < 5.00
- pEC50 (KIT N822K; read-out: EC50 pY719 auto-phosphorylation, KIT N822K transformed BaF3 cells, 2h): < 5.00
- pEC50 (KIT N822K; read-out: EC50 pY823 auto-phosphorylation, KIT N822K transformed BaF3 cells, 2h): < 5.00
- phosphorylation of downstream mediators AKT, S6, ERK, p70S6K and STAT3 [3]: potently inhibited
- KINOMEScan profiling value (QSK): 82
- KINOMEScan profiling value (PKMYT1): 91
